Results from US10894808B2, “Polypeptide ligands specific for plasma kallikrein” (BicycleRD Limited, priority 2013, dated 2021).
Like-named read-outs stand apart in the source and are kept apart here. Values belong to the compound of their own block, whether it stands above or below them. *1 amine or outer side, *2 acyl side, *3 side chain or, on linkers, in order; H or OH if unused. Where a SMILES comes first, the peptide text is derived from it. Bridges are numbered along the chain shown (N, C = ends). [ ]: non-standard residue; d: D form. TBMB = c1c(C[*:1])cc(C[*:3])cc1C[*:2]; Sar = CNCC(=O)O

Key:
[1] = Intravenous pharmacokinetics in rat; format: in vivo
Procedure: Peptides used for the pharmacokinetic studies in Example 4 were lyophilised from 10 mM HCl in water 3 times to afford the hydrochloride salts of the compounds. Solutions were dosed by intravenous bolus at 1 mg/mL in 50 mM Hepes pH 7.0, 5% glycerol, 1.9% DMSO for two compounds (Ac-(06-550) Aze3 HArg5 Sar3-(D-Arg2)) and (06-259-02)-Sar3-(D-Arg2)) at 5 mg/kg in Spraguely Dawely rats. Serial blood samples (˜0.2 mL) were taken into EDTA tubes at the indicated time points, and plasma was separated by centrifugation, and frozen at −20 C for analysis. Employing standard bioanalytical techniques, plasma samples were then analysed and quantified for parent remaining compound using a Waters, Xevo TQS LC-MS. PK parameters were determined using the software package PK Solutions 2.0 from Summit Research Services.
Peptides Ac-(06-550)-Sar3-(D-Arg)2Aze3 HArg5 (which contains the stabilising and affinity enhancing modifications Aze3 and HArg5, and a solubilising C-terminal extension Sar3-(D-Arg)2) (SEQ ID NO: 98) and Ac-(06-259-02)-Sar3-(D-Arg)2 were selected for pharmacokinetic assessment in rat. Peptides were injected intravenously in buffered solution at 1 mg/mL at 5 mg/kg Sprague Dawley rats, and blood was sampled and analysed for peptide concentrations at a number of time points post injection.

[2] = Aqueous solubility (qualitative); format: physicochemical; settings: in words
rabbit kallikrein = rabbit kallikrein (Oryctolagus cuniculus, UniProt G1T127); assay: Functional enzyme assay, inhibition of rabbit kallikrein; format: biochemical
rabbit kallikrein, sequence (G1T127 20-629): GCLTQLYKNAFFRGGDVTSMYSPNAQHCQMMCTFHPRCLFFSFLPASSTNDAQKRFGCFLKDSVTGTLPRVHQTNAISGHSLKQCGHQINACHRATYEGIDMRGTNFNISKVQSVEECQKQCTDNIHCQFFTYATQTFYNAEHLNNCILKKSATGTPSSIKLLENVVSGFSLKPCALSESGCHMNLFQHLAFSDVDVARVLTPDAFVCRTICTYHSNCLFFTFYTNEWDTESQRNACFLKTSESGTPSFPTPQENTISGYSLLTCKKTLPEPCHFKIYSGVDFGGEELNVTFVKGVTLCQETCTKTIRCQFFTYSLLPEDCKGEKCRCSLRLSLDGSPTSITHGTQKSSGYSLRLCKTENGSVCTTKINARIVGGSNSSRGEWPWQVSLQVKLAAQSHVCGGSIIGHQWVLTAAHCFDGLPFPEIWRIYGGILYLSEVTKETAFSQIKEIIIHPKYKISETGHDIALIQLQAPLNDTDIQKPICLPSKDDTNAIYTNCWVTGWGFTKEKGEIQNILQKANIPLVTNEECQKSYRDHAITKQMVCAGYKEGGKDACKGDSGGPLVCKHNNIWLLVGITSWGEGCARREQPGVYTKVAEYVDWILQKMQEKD
Procedure: (§1) Functional enzyme assays were conducted in 10 mM Tris HCl, 150 mM NaCl, 10 mM MgCl2, 1 mM CaCl2 and 1 mg/mL BSA (all Sigma UK) pH 7.4 at 25° C. in solid black 96 or 384 well plates. […] Release of AMC was measured using a Pherastar FS (BMG Labtech), excitation 360 nm, emission 460 nm. The rate of the linear phase of the reaction, typically 5 to 45 minutes, was calculated in MARS data analysis software (BMG labtech). The rate was then used to calculate the IC50 and Ki in Prism (GraphPad). A four parameter inhibition non-linear regression equation was used to calculate the IC50. […]
(§2) Peptides were dissolved as the TFA-salts in their powder form, and stock solutions were usually prepared in water. All solutions were centrifuged and filtered ([…] syringe filters) prior to absorption measurement at 280 nm. Extinction coefficients were calculated based on the Trp/Tyr content of the peptide, and that of TMB (the TMB core, when contained in a peptide, has an extinction coefficient of ˜300 M^−1 cm^−1).

[3] = biological target: T1, biotinylated human plasma kallikrein (Homo sapiens, UniProt P03952); assay: Homogeneous plate-based screening assay of TBMB-cyclised phage clones (signal:background); format: binding; settings: Table 4, 06-259 affinity-matured library
T1 construct: The human kallikrein is non-recombinant and therefore the heavy chain is present; purchased Innovative Research, Novi, Mich., USA IHPKA; host or cells: from human plasma
T1 sequence (P03952 391-638 limits assumed): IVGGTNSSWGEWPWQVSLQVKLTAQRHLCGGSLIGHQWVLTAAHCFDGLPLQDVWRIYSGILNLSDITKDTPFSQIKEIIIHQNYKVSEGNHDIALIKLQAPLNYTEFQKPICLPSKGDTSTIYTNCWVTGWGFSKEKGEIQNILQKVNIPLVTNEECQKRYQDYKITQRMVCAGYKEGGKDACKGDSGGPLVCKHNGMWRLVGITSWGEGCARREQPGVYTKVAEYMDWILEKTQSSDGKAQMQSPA
T1 sequence (P03952 20-390 partner limits assumed): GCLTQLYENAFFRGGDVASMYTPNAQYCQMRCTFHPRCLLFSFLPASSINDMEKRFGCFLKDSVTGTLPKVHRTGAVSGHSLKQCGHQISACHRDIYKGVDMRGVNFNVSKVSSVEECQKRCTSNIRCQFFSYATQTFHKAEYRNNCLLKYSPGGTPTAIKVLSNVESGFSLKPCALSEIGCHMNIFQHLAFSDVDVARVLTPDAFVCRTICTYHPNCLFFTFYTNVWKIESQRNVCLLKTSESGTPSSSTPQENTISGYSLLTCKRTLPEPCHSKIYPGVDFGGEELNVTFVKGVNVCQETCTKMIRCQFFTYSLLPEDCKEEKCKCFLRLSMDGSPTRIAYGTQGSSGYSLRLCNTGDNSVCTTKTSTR
Procedure: Assay of binding of individual clones: Library transformant colonies were picked at random and grown as individual cultures in 2TY broth containing selective antibiotic. The picked colonies were DNA-sequenced using a QIAgen PyroMark Q96 DNA sequencer to reveal the amino-acid substitution present in each clone. Where isolated, a clone of each unique substitution was assayed for human plasma kallikrein binding as follows. The phage-containing supernatant was harvested from the culture and phage were cyclised with tris bromomethyl benzene (TBMB) based on the methods of Heinis et al (Nature Chemical Biology vol. 5 pp 502-507 (2009)). The purified phage from this process were assayed for binding to biotinylated human plasma kallikrein using a homogeneous plate-based binding assay; assay read-out measured on a BMG Labtech Pherastar FS plate reader. The quantitative binding data from triplicate assay samples was averaged (mean) and expressed as signal:background (where background was a sample assayed with no target material). The signal:background was expressed as a % of the parallel parent sample. Error bars denote standard deviation of the mean. Assays shown are representative of at least 2 independent experiments. The assay data was correlated with the peptide sequences. Substitutions marked in grey were not tested (a clone was not isolated from the random library sampling). A sample of a non-binding (arbitrary) bicycle was assayed in parallel to illustrate the assay baseline.
Assay of binding of individual clones: Library transformant colonies, or selection output colonies, were picked and grown as individual cultures in 2TY broth containing selective antibiotic. The picked colonies were DNA-sequenced using a QIAgen PyroMark Q96 DNA sequencer to reveal the amino-acid substitution present in each clone, and were assayed for human plasma kallikrein binding as follows. The phage-containing supernatant was harvested from the culture and phage were cyclised with tris-bromomethylbenzene (TBMB) based on the methods of Heinis et al (Nature Chemical Biology vol. 5 pp 502-507 (2009)). The purified phage from this process were assayed for binding to biotinylated human plasma kallikrein using a homogeneous plate-based binding assay; assay read-out measured on a BMG Labtech Pherastar FS plate reader. The quantitative binding data from duplicate assay samples was averaged (mean) and expressed as signal:background. Assay data shown is representative of at least 2 independent experiments. The assay data was correlated with the peptide sequences.

[4] = Plasma stability profiling Method #1 (35% plasma, MALDI-TOF window of detection); format: in vitro ADME; settings: Method #1, 35% rat or human plasma, 37° C., qualitative
Procedure: A rapid plasma stability profiling assay was developed that employed mass spectrometric detection (MALDI-TOF, Voyager DE, Applied Biosystems) of the parent mass, until the time when the parent peptide mass was no longer observable. Specifically, 200 μM of peptide was incubated in the presence of 35% rat or human plasma (Sera labs, using citrate as anticoagulant) at 37° C., which was supplemented with 1×PBS (derived from a 10×PBS Stock, Sigma). At various time points (i.e. t=0, 3, 24 hrs, henceafter daily up to 10 days), 2 μL of sample was added to 18 μL of 30 mM ammonium bicarbonate in a 1:1 mixture of acetonitrile:H2O. Samples were frozen at −80° C. until the time of analysis. For mass spectrometric analysis that determines the approximate detection window of the peptide, the acetonitrile:H2O-diluted sample of a given time point was spotted directly (0.7 μL) onto the MALDI plate. Matrix (alpha-cyanocinnamic acid, Sigma, prepared as a saturated solution in 1:1 acetonitrile:water containing 0.1% trifluoroacetic acid) was layered over the sample (1 μL). At a similar laser intensity setting on the MALDI TOF, the time could then be determined until parent peptide was no longer detectable. It should be noted that this is a qualitative assay serves to detect relative changes in plasma stability.

[5] = Plasma stability profiling Method #2 (95% plasma, MALDI-TOF), rat plasma; format: in vitro ADME; settings: qualitative, sampled up to 46 hrs
Procedure: (§3) To obtain stability data more rapidly, peptides were also assessed in 95% plasma. Here, PBS was omitted, and a 1-5 mM peptide stock (in DMSO) was directly diluted into plasma (i.e. 2.5 μL stock into 47.5 μL plasma), giving a final concentration of 50 μM. 5 μL samples were taken at appropriate time points and frozen at −80° C. For analysis, the samples were defrosted, mixed with 25 μL of 3:3:1 acetonitrile:methanol:water, and centrifuged at 13 k for 5 min. 5 μL of the peptide-containing supernatant was aspirated and mixed with 30 mM ammonium bicarbonate in a 1:1 mixture of acetonitrile:H2O. 1 μL of this was then spotted on the MALDI plate and analysed as described above. As above, it should be noted that this is a qualitative assay serves to detect relative changes in plasma stability.

[6] = Plasma stability profiling Method #2 (95% plasma, MALDI-TOF), human plasma; format: in vitro ADME; settings: qualitative, sampled up to 46 hrs
Procedure: as §3

[7] = test system: carrageenan-induced paw oedema; assay: Carrageenan-induced paw oedema in rat; format: in vivo; settings: peptides 15 mg/kg ip, indomethacin 5 mg/kg ip, paw volume at 1, 2, 4, 6 h, p<0.001
Procedure: In this analysis, peptide Ac-(06-259-02)-Sar3-(D-Arg)2 (referred to in this study as Bicycle 3; see Example 2 herein) was assessed comparatively against the peptide Ac-(06-34-18) Phe2 Aze3 Tyr4 HArg5 Ala(ψCH2NH)6 (referred to in this study as Bicycle 2 and which is disclosed in Table 26b and FIG. 22 of PCT/EP2014/057440). Inflammation was induced in male Sprague-Dawley rats (n=10 per group) by injection of 100 μL of 1% carrageenan solution in the subplantar region of the right hind paw. Animals received treatment with the peptides and indomethacin according to Table 10:
At 1, 2, 4 and 6 hours after carrageenan administration, paw volume was measured by water displacement method. Statistical analysis was conducted using 2-way ANOVA with repeated measures (GraphPad Prism).

human plasma kallikrein = biological target: T2, human plasma kallikrein (Homo sapiens, UniProt P03952); assay: Functional enzyme assay, inhibition of human plasma kallikrein (Z-PheArg-AMC substrate); format: biochemical; settings: Table 1, synthetic peptides; read-out: Human (Ki)
T2 construct: purchased Stratech, UK
T2 sequence (P03952 391-638 limits assumed): as the sequence (P03952 391-638 limits assumed) above
T2 sequence (P03952 20-390 partner limits assumed): as the sequence (P03952 20-390 partner limits assumed) above
Procedure: as §1, §2

rat plasma kallikrein = biological target: T3, rat plasma kallikrein (Rattus norvegicus, UniProt P14272); assay: Functional enzyme assay, inhibition of rat plasma kallikrein (Z-PheArg-AMC substrate); format: biochemical; settings: Table 1, synthetic peptides; read-out: Rat (Ki)
T3 construct: polyhistidine tag followed by proTEV cleavage site (pro-peptide) (N, cleaved yes); made in house; host or cells: HEK-293 (suspension-adapted), pEXPR-IBA42 vector
T3 sequence (P14272 391-638 limits assumed): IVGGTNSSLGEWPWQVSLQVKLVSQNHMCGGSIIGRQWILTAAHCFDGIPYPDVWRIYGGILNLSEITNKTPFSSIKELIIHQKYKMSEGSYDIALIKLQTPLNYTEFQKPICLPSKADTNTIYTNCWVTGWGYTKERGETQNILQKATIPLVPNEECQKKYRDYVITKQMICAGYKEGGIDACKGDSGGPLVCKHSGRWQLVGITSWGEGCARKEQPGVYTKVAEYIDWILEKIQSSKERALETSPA
Procedure: as §1, §2

SMILES: CC(=O)N[C@H]1CSCc2cc3cc(c2)CSC[C@H](NC(=O)[C@H](Cc2c[nH]c4ccccc24)NC(=O)[C@@H]2CCCN2C(=O)[C@H](CC(N)=O)NC(=O)[C@H](Cc2c[nH]c4ccccc24)NC(=O)[C@H]([C@@H](C)O)NC(=O)[C@H](CC(N)=O)NC1=O)C(=O)N1CCC[C@H]1C(=O)N[C@@H](Cc1c[nH]c2ccccc12)C(=O)N[C@@H](CC(=O)O)C(=O)N[C@@H](C)C(=O)N1CCC[C@H]1C(=O)N[C@@H](CC(C)C)C(=O)N[C@H](C(=O)N[C@@H](C)C(=O)N(C)CC(=O)N(C)CC(=O)N(C)CC(=O)N[C@H](CCCNC(=N)N)C(=O)N[C@H](CCCNC(=N)N)C(N)=O)CSC3 [Ac-(06-259-02)-Sar3-(DArg2)] (Ac-CNTWNPWCPWDAPLCA[Sar][Sar][Sar][dR][dR]-NH2; linker 1-8-15 via TBMB)
- Ki (rabbit kallikrein): 1450 nM
- stability in the rat circulation ([1]; FIG. 4, rat, iv, in words): marked stability in the rat circulation
- clearance ([1]; in vivo, Table 8, Sprague Dawley rat, iv 5 mg/kg): 7.2 mL/min/kg
- Vd ([1]; in vivo, Table 8, Sprague Dawley rat, iv 5 mg/kg, read-out: Vss): 0.8 L/kg
- half-life ([1]; in vivo, Table 8, Sprague Dawley rat, iv 5 mg/kg, read-out: t1/2 elimination): 78 min
- effect on paw swelling induced by carrageenan [7]: inhibited the paw swelling induced by carrageenan at all timepoints

SMILES: COc1ccc2c(c1)c(CC(=O)O)c(C)n2C(=O)c1ccc(Cl)cc1 [indomethacin, reference compound]
- effect on paw swelling induced by carrageenan [7]: highly significant reduction in paw swelling

SMILES: CC[C@H](C)[C@@H]1NC(=O)[C@H](CC(C)C)NC(=O)[C@H]([C@@H](C)O)NC(=O)[C@@H]2CSCc3cc(cc(c3)CSC[C@@H](C(=O)N[C@@H](C)C(N)=O)NC(=O)[C@H]([C@@H](C)O)NC(=O)[C@H]([C@@H](C)CC)NC(=O)[C@H](CC(N)=O)NC1=O)CSC[C@H](NC(=O)[C@H](C)N)C(=O)N[C@@H](CCCNC(=N)N)C(=O)N[C@@H](CC(N)=O)C(=O)N[C@@H](Cc1ccc(O)cc1)C(=O)N[C@@H](Cc1c[nH]c3ccccc13)C(=O)N[C@@H](CC(N)=O)C(=O)N1CCC[C@H]1C(=O)N2 [06-255] (H-ACRNYWNPCTLINITCA-NH2; linker 2-9-16 via TBMB; N-terminus and C-terminus assumed)
- Ki (human plasma kallikrein): 3.4 nM
- Ki (rat plasma kallikrein): 18.9 nM
- Ki (rabbit kallikrein; Table 1, synthetic peptides, read-out: Rabbit (Ki)): 342 nM
- Ki (rabbit kallikrein; Table 5, read-out: Rabbit (Ki)): 342 nM
- window of detection of parent peptide [4]: up to 10 days
- aqueous solubility [2]: poor solubility profile

Further lines, results first:

- clearance ([1]; in vivo, text b258, rat, iv 5 mg/kg): 17 mL/min/kg
- aqueous solubility [2]: significantly reduced aqueous solubility
SMILES: CC[C@H](C)[C@@H]1NC(=O)[C@H](CC(=O)O)NC(=O)[C@@H]2CCCN2C(=O)[C@H](Cc2ccc(O)cc2)NC(=O)[C@H](Cc2ccc(O)cc2)NC(=O)[C@H](C(C)C)NC(=O)[C@@H]2CSCc3cc(cc(c3)CSC[C@H](N)C(=O)N[C@@H](CO)C(=O)N[C@@H](Cc3ccccc3)C(=O)N3CCC[C@H]3C(=O)N[C@@H](Cc3ccc(O)cc3)C(=O)N[C@@H](CCCNC(=N)N)C(=O)N2)CSC[C@@H](C(N)=O)NC1=O [06-550] (H-CSFPYRCVYYPDIC-NH2; linker 1-7-14 via TBMB; N-terminus assumed)

- Ki (rabbit kallikrein; Table 5, read-out: Rabbit (Ki)): 1450 nM
- S:B (Signal:Background) [3]: 43.49
- window of detection of parent peptide [4]: up to 10 days
- comparative stability in rat plasma [5]: significantly more stable
- comparative stability in human plasma [6]: significantly more stable
- clearance ([1]; Sprague-Dawley, plasma, text b258, rat, iv 5 mg/kg): 7 mL/min/kg
- aqueous solubility [2]: poor solubility profile
SMILES: CC(C)C[C@@H]1NC(=O)[C@@H]2CCCN2C(=O)[C@H](C)NC(=O)[C@H](CC(=O)O)NC(=O)[C@H](Cc2c[nH]c3ccccc23)NC(=O)[C@@H]2CCCN2C(=O)[C@@H]2CSCc3cc(cc(c3)CSC[C@@H](C(=O)N[C@@H](C)C(N)=O)NC1=O)CSC[C@H](NC(=O)[C@H](C)N)C(=O)N[C@@H](CC(N)=O)C(=O)N[C@@H]([C@@H](C)O)C(=O)N[C@@H](Cc1c[nH]c3ccccc13)C(=O)N[C@@H](CC(N)=O)C(=O)N1CCC[C@H]1C(=O)N[C@@H](Cc1c[nH]c3ccccc13)C(=O)N2 [06-259-02] (H-ACNTWNPWCPWDAPLCA-NH2; linker 2-9-16 via TBMB; N-terminus and C-terminus assumed)
